Values of other authors as cited in US12357587B2, “Cannabinoid monoterpene based pharmaceutical topical composition for musculoskeletal pain” (MOUNTAIN VALLEY MD INC., priority 2022, dated 2025).

Experiments:
[1] = purified compound; rat chronic constriction injury

C=C(C)[C@@H]1CCC(C)=C[C@H]1c1c(O)cc(CCCCC)cc1O [cannabidiol (CBD), cannabidiol]
relief of neuropathic pain [1]: partially relieved neuropathic pain

NC(=O)N1c2ccccc2C=Cc2ccccc21 [carbamezepine]
decrease in white blood cell count (observed in 7% of patients, usually reversed within the first 4 months of therapy): 25%
increase in the risk of blood dyscrasias (patients taking carbamezepine): five- to eight
patients with a 25% decrease in white blood cell count (usually reversed within the first 4 months of therapy): 7%
